Values quoted from earlier work as cited in article PMC3745299 (Journal of medicinal chemistry, 2013).
Like-named read-outs stand apart in the source and are kept apart here.

Tests used:
[1] = system: Mycobacterium tuberculosis
[2] = system: Cyp450; details: dog
[3] = system: human pregnane X receptor (hPXR); details: below 100 μM
[4] = system: Cyp450; details: rat

## CO[C@H]1/C=C/O[C@@]2(C)Oc3c(C)c(O)c4c(=O)c(c5oc6cc(N7CCN(CC(C)C)CC7)cc(O)c6nc-5c4c3C2=O)NC(=O)/C(C)=C\C=C\[C@H](C)[C@H](O)[C@@H](C)[C@@H](O)[C@@H](C)[C@H](OC(C)=O)[C@@H]1C [bxRIF2a, rifalazil]
[1]
  MIC90: < 4 nM
[2]
  Cyp450 induction activity: dramatically reduced
[3]
  hPXR activation in vitro: essentially no hPXR activation
[4]
  Cyp450 induction activity: dramatically reduced
